Publication PMC6270263, “Factors Influencing the Antifolate Activity of Synthetic Tea-Derived Catechins” (Molecules, 2013)

Test system: SK-MEL-28 melanoma cells
Assay: Apoptosis assay (cell death detection ELISA) with or without site markers
Format: cell-based, human
Settings: SK-MEL-28, 10 µM, alone
From the text: Serum is commonly used as a supplement in cell culture media. It supports cell growth and product formation by providing a broad spectrum of macromolecules, attachment factors, nutrients, and hormone and growth factors. The most commonly used animal serum supplement is foetal bovine serum, FBS (alternatively called foetal calf serum—FCS). Because BSA is a major component of FBS, the in vitro activity of catechins on tumour cells might be affected by their interaction with BSA. The effect of albumin binding on the biological activity of polyphenols is unclear. Does the bound ligand have some biological activity or does the polyphenol have to be in the free form to be active? To answer this question and to determine whether BSA-catechin interactions increase or decrease catechin anti-tumour activity, the proapoptotic activity of TMCG on SK-MEL-28 melanoma cells was probed in the presence of warfarin or ibuprofen [Figure 5(b)]. […] Because the binding of catechins to BSA seems to control drug availability, the lower affinity of TMCG and TMECG for serum albumins, with respect to natural tea catechins, might contribute to the high in vivo anti-tumour activity of these methylated synthetic catechins. […]
The human melanoma cell line SK-MEL-28 was obtained from American Type Culture Collection (ATCC, Manassas, VA, USA) and was maintained in Eagles’s Minimum Essential Medium (EMEM) supplemented with 10% (v/v) FBS and antibiotics at 37 °C in a humidified atmosphere containing 7.5% CO2. Cell viability was evaluated using the MTT cell proliferation assay. Cells were evaluated for apoptosis using a cell death detection ELISA (Cell Death Detection ELISAPLUS, Roche Diagnostics, Barcelona, Spain). […] The amount of nucleosomes is photometrically quantified at 405 nm by the peroxidase activity retained in the immunocomplexes. Apoptosis was defined as the specific enrichment of mono- and oligonucleosomes in the cytoplasm and was calculated by dividing the absorbance of treated samples with the absorbance of untreated samples after correcting for the number of cells. […]

Compound | Induction of apoptosis, compound alone
CC(C)Cc1ccc(C(C)C(=O)O)cc1 (centres unmarked) [ibuprofen, reference compound] | did not induce apoptosis
CC(=O)CC(c1ccccc1)c1c(O)c2ccccc2oc1=O (centres unmarked) [warfarin, reference compound] | did not induce apoptosis
